The results in this text go back to ChEMBL document CHEMBL1138593, “Structural modification of 3-arylisoquinolines to isoindolo[2,1-b]isoquinolinones for the development of novel topoisomerase 1 inhibitors with molecular docking study” (2009).

Active and inactive are the calls of the source. The calls are words filed in the database; no cut-off is given here.

The species named for one assay is Bos taurus. Kind of assay: Inhibition of calf thymus DNA topoisomerase 1 assessed as relaxation of supercoiled Escherichia coli pBR322 DNA at 100 ug/mL after 30 mins by agarose gel electrophoresis.
Another assay deals with SK-OV-3. The assay is described as follows: Cytotoxicity against human SKOV3 cells by sulforhodamine B assay. It counts as functional. (Sulforhodamine B stains cellular protein and so reports cell mass.)
A further assay deals with A549. The assay is described as follows: Cytotoxicity against human A549 cells by sulforhodamine B assay. It counts as functional.
The next assay deals with HCT-15. Kind of assay: Cytotoxicity against human HCT15 cells by sulforhodamine B assay. The class given is functional.

Turning to `CC[C@@]1(O)C(=O)OCc2c1cc1n(c2=O)Cc2cc3ccccc3nc2-1` [CAMPTOTHECIN], the “topoisomerase 1 inhibition (active/not active)” value in the assay listed under Bos taurus is “Active”. Also, the Activity with SK-OV-3 was 0.035 µg/mL; with A549, 0.072 µg/mL; with HCT-15, 0.089 µg/mL.
Turning to `COc1ccc(-c2cc3cc(C)ccc3c(=O)[nH]2)c(CO)c1`, the Activity with SK-OV-3 was 14.59 µg/mL; in the assay with A549, 19.43 µg/mL; in the assay with HCT-15, 4.28 µg/mL.
In the case of `COc1ccc2c(c1)Cn1c-2cc2ccc(C)cc2c1=O`, the “topoisomerase 1 inhibition (active/not active)” value in the assay filed under Bos taurus is “inactive”. Further, the values for the Activity with SK-OV-3, in the assay with A549 and with HCT-15 were 15.34 µg/mL, 45.12 µg/mL and 34.33 µg/mL, respectively.
On to `COCOCc1cc(OC)c(OC)cc1-c1cc2cc(C)ccc2c(=O)[nH]1`, for which the Activity stood at 34.54 µg/mL in the assay with SK-OV-3, 43.65 µg/mL in the assay on A549 and 34.55 µg/mL in the assay on HCT-15.
For `Cc1ccc2cc(-c3ccccc3CO)[nH]c(=O)c2c1`, in that order: 0.22 µg/mL, 12.78 µg/mL and 23.11 µg/mL.
Regarding `COCOCc1cc(OC)c(OC)cc1-c1cc2ccc(C)cc2c(=O)[nH]1`, the Activity was found to be 28.22 µg/mL with SK-OV-3, 25.02 µg/mL with A549 and 31.13 µg/mL with HCT-15.
On to `COc1cc2c(cc1OC)-c1cc3ccc(C)cc3c(=O)n1C2`, for which the “topoisomerase 1 inhibition (active/not active)” value in the assay filed under Bos taurus was “inactive”. Besides, the Activity is 7.23 µg/mL with SK-OV-3, 24.13 µg/mL in the assay on A549 and 6.56 µg/mL with HCT-15.
For `COc1ccc(COCc2ccccc2-c2cc3cc(C)ccc3c(=O)[nH]2)cc1`, the Activity in the assay with SK-OV-3 worked out at 2.37 µg/mL; with A549, 7.44 µg/mL; with HCT-15, 13.27 µg/mL.
As for `COc1ccc(-c2cc3ccc(C)cc3c(=O)[nH]2)c(CO)c1`, the Activity with SK-OV-3 turned out to be 9.69 µg/mL; in the assay on A549, 10.11 µg/mL; in the assay with HCT-15 it was 7.39 µg/mL.
Turning to `Cc1ccc2c(=O)n3c(cc2c1)-c1ccccc1C3`, the “topoisomerase 1 inhibition (active/not active)” value in the assay filed under Bos taurus is “Active”. Moreover, the Activity with SK-OV-3 was 44.12 µg/mL; with A549 it was 15.94 µg/mL; in the assay with HCT-15, 46.35 µg/mL.
`COc1ccc(COCc2ccccc2-c2cc3ccccc3c(=O)[nH]2)cc1`: the Activity is 24.66 µg/mL with SK-OV-3, 26.56 µg/mL with A549 and 17.39 µg/mL in the assay on HCT-15.
Consider `COc1ccc2c(c1)Cn1c-2cc2ccccc2c1=O`, for which, in the assay filed under Bos taurus, the “topoisomerase 1 inhibition (active/not active)” value was “Active”. Besides, the Activity in the assay on SK-OV-3 is 12.01 µg/mL; in the assay with A549, 9.25 µg/mL; in the assay on HCT-15 it was 7.29 µg/mL.
In the case of `O=c1[nH]c(-c2ccccc2CO)cc2ccccc12`, the results for the Activity with SK-OV-3, in the assay on A549 and in the assay with HCT-15 were 21.98 µg/mL, 6.89 µg/mL and 3.88 µg/mL, respectively.
`COc1ccc2c(c1)Cn1c-2cc2cc(C)ccc2c1=O`: the “topoisomerase 1 inhibition (active/not active)” value in the assay filed under Bos taurus was “inactive”. Further, the figures for the Activity in the assay with SK-OV-3, in the assay on A549 and in the assay on HCT-15 were 5.52 µg/mL, 5.95 µg/mL and 8.78 µg/mL, respectively.
Take `COc1cc(CO)c(-c2cc3ccc(C)cc3c(=O)[nH]2)cc1OC`: the figures for the Activity in the assay with SK-OV-3, in the assay with A549 and in the assay on HCT-15 were 0.67 µg/mL, 15.15 µg/mL and 22.45 µg/mL, respectively.
As to `COc1ccc(-c2cc3ccccc3c(=O)[nH]2)c(CO)c1`, the results for the Activity with SK-OV-3, with A549 and in the assay with HCT-15 were 0.37 µg/mL, 3.65 µg/mL and 0.21 µg/mL, respectively.
Consider `COc1cc2c(cc1OC)-c1cc3ccccc3c(=O)n1C2`, for which, in the assay listed under Bos taurus, the “topoisomerase 1 inhibition (active/not active)” value is “inactive”. Further, the Activity in the assay on SK-OV-3 came out at 12.69 µg/mL; in the assay with A549, 36.75 µg/mL; in the assay with HCT-15, 9.12 µg/mL.
For `COc1cc(CO)c(-c2cc3cc(C)ccc3c(=O)[nH]2)cc1OC`, the Activity amounted to 7.8 µg/mL with SK-OV-3, 22.1 µg/mL with A549 and 7.17 µg/mL with HCT-15.
For the compound `COCOCc1cc(OC)ccc1-c1cc2cc(C)ccc2c(=O)[nH]1`, the Activity in the assay with SK-OV-3 came out at 31.26 µg/mL; in the assay with A549, 80.22 µg/mL; with HCT-15 it was 29.26 µg/mL.
On to `COc1cc2c(cc1OC)-c1cc3cc(C)ccc3c(=O)n1C2`, for which the “topoisomerase 1 inhibition (active/not active)” value in the assay filed under Bos taurus was “inactive”. Besides, the values for the Activity with SK-OV-3, with A549 and in the assay with HCT-15 were 36.15 µg/mL, 49.09 µg/mL and 34.98 µg/mL, respectively.
As for `COc1cc(CO)c(-c2cc3ccccc3c(=O)[nH]2)cc1OC`, the Activity with SK-OV-3 is 12.58 µg/mL; in the assay on A549, 7.32 µg/mL; in the assay on HCT-15 it was 19.68 µg/mL.
`COCOCc1cc(OC)c(OC)cc1-c1cc2ccccc2c(=O)[nH]1`: the Activity in the assay with SK-OV-3 was 12.68 µg/mL; with A549, 16.04 µg/mL; with HCT-15, 24.7 µg/mL.
In the case of `COc1ccc(COCc2ccccc2-c2cc3ccc(C)cc3c(=O)[nH]2)cc1`, the Activity in the assay with SK-OV-3 was 4.76 µg/mL; in the assay with A549, 3.33 µg/mL; with HCT-15 it was 4.15 µg/mL.
Turning to `Cc1ccc2cc3n(c(=O)c2c1)Cc1ccccc1-3`, the “topoisomerase 1 inhibition (active/not active)” value in the assay filed under Bos taurus was “Active”. The Activity amounted to 48.92 µg/mL with SK-OV-3, 41.44 µg/mL with A549 and 35.27 µg/mL with HCT-15.
Turning to `COCOCc1cc(OC)ccc1-c1cc2ccc(C)cc2c(=O)[nH]1`, the Activity in the assay with SK-OV-3 stood at 23.08 µg/mL; in the assay with A549 it was 66.52 µg/mL; in the assay on HCT-15, 40.05 µg/mL.
In the case of `O=c1c2ccccc2cc2n1Cc1ccccc1-2`, the “topoisomerase 1 inhibition (active/not active)” value in the assay listed under Bos taurus is “Active”. For the same compound, the results for the Activity in the assay with SK-OV-3, with A549 and in the assay with HCT-15 were 14.84 µg/mL, 3.7 µg/mL and 43.93 µg/mL, respectively.
In the case of `COCOCc1cc(OC)ccc1-c1cc2ccccc2c(=O)[nH]1`, the Activity came out at 17.06 µg/mL in the assay with SK-OV-3, 32.98 µg/mL with A549 and 21.84 µg/mL with HCT-15.
On to `Cc1ccc2c(=O)[nH]c(-c3ccccc3CO)cc2c1`, for which the Activity came to 8.22 µg/mL with SK-OV-3, 3.66 µg/mL with A549 and 3.34 µg/mL with HCT-15.
